Experimental findings from PubChem BioAssay (NCI) are described below.

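Assay format: 96-well plates, 48-hour exposure. GI50 = concentration required for 50% inhibition of growth. TGI is the concentration that stops growth completely.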

One assay concerns P388/ADR leukemia. As to the kind of experiment: NCI tumour cell line growth inhibition, 48 h.
In another assay the test system is P388 leukemia. As to the kind of experiment: NCI tumour cell line growth inhibition, 48 h.

`C[CH2][Ge]1([CH2]C)[CH2]CC2(CCN(CCCN(C)C)C2)C[CH2]1`: the GI50 with P388/ADR leukemia was 1020 nM; in the assay on P388 leukemia, 1340 nM. Besides, the TGI in the assay on P388/ADR leukemia amounted to 1870 nM; in the assay on P388 leukemia, 2700 nM.

Turning to `COc1cccc2c1C(=N)c1c(O)c3c(c(O)c1C2=O)C[C@@](O)(C(C)=O)C[C@@H]3OC1CC(N)C(O)C(C)O1` (some centres not stated), the GI50 was 13600 nM in the assay with P388/ADR leukemia and 42.5 nM in the assay on P388 leukemia. For the same compound, in the assay on P388/ADR leukemia, the TGI was found to be 51700 nM.
